± gives the expanded uncertainty stated by the source.
Details: Liquid, Vibrating tube method

CCCCO [butan-1-ol]
Details | mass density [kg/m3]
323.15 K, 34081 kPa | 811.155 ± 0.86
323.15 K, 35113 kPa | 811.773 ± 0.86
323.15 K, 37953 kPa | 813.623 ± 0.87
323.15 K, 42011 kPa | 816.075 ± 0.88
323.15 K, 48025 kPa | 819.642 ± 0.89
323.15 K, 49934 kPa | 820.799 ± 0.9
323.15 K, 52114 kPa | 821.994 ± 0.9
323.15 K, 54964 kPa | 823.594 ± 0.91
323.15 K, 58045 kPa | 825.293 ± 0.92
323.15 K, 60050 kPa | 826.448 ± 0.92
323.15 K, 62131 kPa | 827.565 ± 0.93
323.15 K, 64999 kPa | 829.093 ± 0.93
323.16 K, 920.7 kPa | 786.888 ± 0.81
323.16 K, 27958 kPa | 807.28 ± 0.85
323.16 K, 30055 kPa | 808.674 ± 0.85
323.16 K, 33067 kPa | 810.61 ± 0.86
323.16 K, 40047 kPa | 814.861 ± 0.88
323.16 K, 44937 kPa | 817.856 ± 0.89
323.16 K, 66131 kPa | 829.687 ± 0.94
328.15 K, 97.9 kPa | 781.987 ± 0.81
328.15 K, 289.9 kPa | 782.179 ± 0.81
328.15 K, 897.5 kPa | 782.733 ± 0.81
328.15 K, 994.1 kPa | 782.825 ± 0.81
328.15 K, 1988.8 kPa | 783.741 ± 0.81
328.15 K, 2996.7 kPa | 784.66 ± 0.81
328.15 K, 5013.4 kPa | 786.446 ± 0.81
328.15 K, 6974.9 kPa | 788.15 ± 0.81
328.15 K, 9017 kPa | 789.881 ± 0.82
328.15 K, 10040 kPa | 790.727 ± 0.82
328.15 K, 24924 kPa | 802.164 ± 0.85
328.15 K, 27979 kPa | 804.324 ± 0.85
328.15 K, 29958 kPa | 805.68 ± 0.86
328.15 K, 32060 kPa | 807.104 ± 0.86
328.15 K, 33066 kPa | 807.772 ± 0.86
328.15 K, 33107 kPa | 807.703 ± 0.86
328.15 K, 34013 kPa | 808.285 ± 0.86
328.15 K, 35030 kPa | 808.989 ± 0.87
328.15 K, 38010 kPa | 810.915 ± 0.87
328.15 K, 39969 kPa | 812.181 ± 0.88
328.15 K, 41959 kPa | 813.311 ± 0.88
328.15 K, 44953 kPa | 815.144 ± 0.89
328.15 K, 47978 kPa | 816.959 ± 0.9
328.15 K, 49927 kPa | 818.128 ± 0.9
328.15 K, 51997 kPa | 819.32 ± 0.91
328.15 K, 54947 kPa | 821.045 ± 0.91
328.15 K, 57939 kPa | 822.658 ± 0.92
328.15 K, 59991 kPa | 823.77 ± 0.93
328.15 K, 61982 kPa | 824.89 ± 0.93
328.15 K, 65032 kPa | 826.439 ± 0.94
328.15 K, 66046 kPa | 826.965 ± 0.94
328.16 K, 501 kPa | 782.371 ± 0.81
328.16 K, 12210 kPa | 792.522 ± 0.82
328.16 K, 15055 kPa | 794.783 ± 0.83
328.16 K, 18061 kPa | 797.122 ± 0.83
328.16 K, 20279 kPa | 798.799 ± 0.84
328.16 K, 22013 kPa | 800.057 ± 0.84
333.15 K, 532.6 kPa | 779.903 ± 0.81
333.15 K, 897.8 kPa | 780.245 ± 0.81
333.15 K, 1987.2 kPa | 781.249 ± 0.81
333.15 K, 3023.4 kPa | 782.177 ± 0.81
333.15 K, 4997.4 kPa | 783.921 ± 0.81
333.15 K, 7002.4 kPa | 785.686 ± 0.82
333.15 K, 9032 kPa | 787.401 ± 0.82
333.15 K, 10210 kPa | 788.367 ± 0.82
333.15 K, 15008 kPa | 792.251 ± 0.83
333.15 K, 22034 kPa | 797.567 ± 0.84
333.15 K, 28040 kPa | 801.782 ± 0.85
333.15 K, 30016 kPa | 803.156 ± 0.86
333.15 K, 32067 kPa | 804.524 ± 0.86
333.15 K, 34086 kPa | 805.827 ± 0.87
333.15 K, 35075 kPa | 806.492 ± 0.87
333.15 K, 37894 kPa | 808.332 ± 0.88
333.15 K, 40111 kPa | 809.759 ± 0.88
333.15 K, 41947 kPa | 810.938 ± 0.88
333.15 K, 44974 kPa | 812.823 ± 0.89
333.15 K, 45490 kPa | 813.093 ± 0.89
333.15 K, 47936 kPa | 814.509 ± 0.9
333.15 K, 49920 kPa | 815.727 ± 0.9
333.15 K, 51953 kPa | 816.927 ± 0.91
333.15 K, 54876 kPa | 818.691 ± 0.92
333.15 K, 58057 kPa | 820.5 ± 0.92
333.15 K, 59993 kPa | 821.547 ± 0.93
333.15 K, 62049 kPa | 822.689 ± 0.93
333.15 K, 64970 kPa | 824.293 ± 0.94
333.15 K, 66005 kPa | 824.853 ± 0.94
333.16 K, 87.7 kPa | 779.482 ± 0.81
333.16 K, 303.5 kPa | 779.691 ± 0.81
333.16 K, 1003 kPa | 780.346 ± 0.81
333.16 K, 12011 kPa | 789.847 ± 0.82
333.16 K, 17992 kPa | 794.568 ± 0.83
333.16 K, 20036 kPa | 796.123 ± 0.84
333.16 K, 25027 kPa | 799.667 ± 0.85
333.16 K, 33073 kPa | 805.134 ± 0.86
338.15 K, 80.9 kPa | 775.106 ± 0.81
338.15 K, 309.8 kPa | 775.333 ± 0.81
338.15 K, 561.6 kPa | 775.578 ± 0.81
338.15 K, 898.5 kPa | 775.911 ± 0.81
338.15 K, 1014.1 kPa | 776.019 ± 0.81
338.15 K, 2936.1 kPa | 777.859 ± 0.81
338.15 K, 5018.6 kPa | 779.821 ± 0.81
338.15 K, 10034 kPa | 784.276 ± 0.82
338.15 K, 14885 kPa | 788.349 ± 0.83
338.15 K, 17956 kPa | 790.925 ± 0.83
338.15 K, 19927 kPa | 792.473 ± 0.84
338.15 K, 22041 kPa | 794.077 ± 0.84
338.15 K, 25026 kPa | 796.362 ± 0.85
338.15 K, 29994 kPa | 799.911 ± 0.86
338.15 K, 32882 kPa | 801.907 ± 0.87
338.15 K, 33937 kPa | 802.603 ± 0.87
338.15 K, 35012 kPa | 803.345 ± 0.87
338.15 K, 39987 kPa | 806.717 ± 0.88
338.15 K, 41990 kPa | 808.025 ± 0.89
338.15 K, 44978 kPa | 809.926 ± 0.89
338.15 K, 47971 kPa | 811.881 ± 0.9
338.15 K, 49999 kPa | 813.099 ± 0.91
338.15 K, 52127 kPa | 814.375 ± 0.91
338.15 K, 57940 kPa | 817.865 ± 0.93
338.15 K, 60014 kPa | 819.058 ± 0.93
338.15 K, 65012 kPa | 821.872 ± 0.94
338.15 K, 66057 kPa | 822.451 ± 0.95
338.16 K, 2000.2 kPa | 776.987 ± 0.81
338.16 K, 6917.3 kPa | 781.55 ± 0.82
338.16 K, 9046.9 kPa | 783.457 ± 0.82
338.16 K, 11959 kPa | 785.981 ± 0.82
338.16 K, 27976 kPa | 798.446 ± 0.85
338.16 K, 31949 kPa | 801.318 ± 0.86
338.16 K, 37962 kPa | 805.345 ± 0.88
338.16 K, 54992 kPa | 816.085 ± 0.92
338.16 K, 62074 kPa | 820.252 ± 0.94
338.16 K, 67534 kPa | 823.221 ± 0.95
343.15 K, 73.7 kPa | 769.631 ± 0.81
343.15 K, 297.3 kPa | 769.853 ± 0.81
343.15 K, 520.3 kPa | 770.07 ± 0.81
343.15 K, 911.7 kPa | 770.459 ± 0.81
343.15 K, 1017.7 kPa | 770.563 ± 0.81
343.15 K, 1994.6 kPa | 771.497 ± 0.81
343.15 K, 2332.5 kPa | 771.83 ± 0.81
343.15 K, 2968.3 kPa | 772.434 ± 0.81
343.15 K, 4994.8 kPa | 774.313 ± 0.81
343.15 K, 6976.6 kPa | 776.117 ± 0.82
343.15 K, 9002.6 kPa | 777.941 ± 0.82
343.15 K, 10060 kPa | 778.847 ± 0.82
343.15 K, 12025 kPa | 780.506 ± 0.82
343.15 K, 14928 kPa | 782.929 ± 0.83
343.15 K, 17975 kPa | 785.398 ± 0.84
343.15 K, 19985 kPa | 786.983 ± 0.84
343.15 K, 22033 kPa | 788.56 ± 0.84
343.15 K, 25091 kPa | 790.858 ± 0.85
343.15 K, 28045 kPa | 793.012 ± 0.86
343.15 K, 30082 kPa | 794.441 ± 0.86
343.15 K, 32170 kPa | 795.891 ± 0.87
343.15 K, 33097 kPa | 796.546 ± 0.87
343.15 K, 35030 kPa | 797.771 ± 0.87
343.15 K, 37943 kPa | 799.701 ± 0.88
343.15 K, 40012 kPa | 801.058 ± 0.89
343.15 K, 41972 kPa | 802.307 ± 0.89

From the NIST ThermoML archive (doi:10.1021/je5010214)
